Entries after “also recorded” stand apart in the source; their conditions may differ. Where a SMILES comes first, the peptide text is derived from it.

Data set [1] relates to peritoneum. Put plainly: ECM (matrix) movement into peritoneal wounds after laparotomy injury, NHS-FITC matrix labelling. The data set is classed as in vivo, mouse.
The subject of data set [2] is liver. Put plainly: ECM (matrix) movement into liver wounds after electroporation injury, NHS-FITC matrix labelling. The data set is classed as in vivo, mouse.
The subject of data set [3] is liver tissue. Put plainly: In vivo effects on ECM movement in the presence of modulators (FIG. 20). The conditions noted are these: FIG. 20, modulator administered after injury. The protocol: An injury within liver tissue was generated, a potential modulator was administered and ECM movement was monitored.
The subject of data set [4] is fascia fibroblasts. Put plainly: Fascia invasion assay (ex vivo fascia 3D Matrigel culture). In kind it is cell-based, mouse.
Experimental: In order to observe the dynamic changes of fascia fibroblasts, the inventors isolated dorsal skin from P4 to P6 neonates of En1^Cre; R26^mTmG mouse lines. Cre positive neonates from this double transgenic mouse line were detected by green fluorescent signal in dorsal skin with a Leica M205 FA stereo microscope. Matrigel was prepared by diluting the stock aliquots with DMEM/F12 medium to a concentration of 6 mg/ml. Then 150 μl prepared gel was added in the center of a 35 mm cell culture dish (Ibidi). 4 mm biopsies were made from the dorsal skin and fascia tissues were then isolated from the dorsal skin tissues. Isolated fascia tissues were then embedded into the gel and were allowed to be solidified for one hour at 37° C. Then the tissue-gel system was maintained in DMEM/F12 medium (Life Technologies) supplemented with 10% FBS (Life Technologies), 1% non-essential amino acid (Thermo Fisher), 1% Glutamax (Thermo Fisher), 1% penicillin and streptomycin (Thermo Fisher) in a 37° C. incubator supplied with 95% O2 and 5% CO2. Medium was changed every other day until day 4 when tissues were collected and fixed. For fixation with Matrigel system, tissues were fixed in 2% paraformaldehyde (VWR) with 0.1% glutaraldehyde (Sigma) for 1 hour and then washed three times with phosphate buffered saline (PBS, Life Technologies) and stored in PBS at 4° C.
Fascia tissues were recorded everyday by a brightfield microscope to check the invasion and contraction state of the tissues. The invasion index was calculated with the following formula: Invasion index=(SD4−SD0)/SD0
SD4 and SD0 represent tissue size (including the migrated area) on Day 4 and Day 0, respectively. The contraction index was calculated with the following formula: Contraction index=(TD0−TD4)/TD0
TD4 and TD0 represent original tissue size (excluding the migrated area) on Day 4 and Day 0 respectively.
The Inventors isolated fascia from back-skin of En1^Cre; R26^mTmG double-transgenic mice, separately incubated whole fascia explants with 26 small molecules, and measured the invasion index (Si)=(SD4−SD0)/SD0 (see Methods) as a proxy measure of sprouting and reticulation.
The subject of data set [5] is pleural fluid matrix movement into lungs. Put plainly: Bleomycin-induced lung fibrosis model with pleural matrix fate tracing. In kind it is in vivo, mouse. Here is the method: The inventors generated a labelling solution by mixing 5 μl NHS-ester (25 mg/ml) with 5 μl of 100 mM pH 9.0 sodium bicarbonate buffer, combining with 40 μl PBS to a total volume of 50 μl. The labelling solution was applied intra pleural under isoflurane anaesthesia by using a 30G cannula. The oropharyngeal administration of bleomycin for the induction of pulmonary fibrosis was carried out in an antagonistic anesthesia in C57BL/6J mice of both sexes (6-8 weeks age). After the toe-pinch reflex was absent, the mouse was placed on the incisors of the upper jaw and thus kept in an upright position. The tongue was carefully fixed and held to the side with tweezers while the nose of the animal is covered with tweezers. By keeping the nose closed, the mouse was forced to breathe through the mouth. With the help of a pipette, bleomycin was dissolved in a dosage of 2 units/kg KGW in 80 μl PBS carefully into the throat. As soon as the animal has inhaled the solution, it was tansferred to a Hot plate (duration approx. 30 to 60 seconds). After antagonization animals were housed for 14 days. Nintedanib was added 1 hour before bleomycin installation and every other day intra peritoneal 10 μM. To directly answer if Nintedanib's anti-fibrotic actions are mediated through its effects on fluid matrix movements, the Inventors labeled fluid matrix reservoirs on lung surfaces as before, induced lung inflammation and fibrosis with Bleomycin, and followed these mice with daily injections of Nintedanib (FIG. 44B). […] Both lung alveoli and major blood vessels lacked accretions of labeled fibers.

The mark [6] stands for this setting: inhibitors 10 μM i.p. 2 hours before surgery, organs harvested after 24 h, FITC in wound lysates.

For the compound `N#CCCN` [BAPN], the “ECM (matrix) movement, peritoneum” value in data set [1] (mouse, in vivo, ip) is “increased”. Moreover, the “ECM (matrix) movement, liver” value in data set [2] (mouse, in vivo, ip) is “increased”.
On to `O=C(O)C1(c2ccc3c(c2)OC[C@H](Cc2ccc(-c4ccccc4)cc2)[C@H]3O)CCCC1` [CP-105696], for which, in data set [3], the “effect on ECM movement towards the site of injury (phenotype)” value (from here on “effect on ECM movement towards the site”) was “anti-fibrotic phenotype”.
On to `CN(C(=O)c1cc2ccccc2cc1C(=O)C(c1cccc2ccccc12)P(=O)(O)O)C1CCN(C(=O)c2ccccc2)CC1` (stereo not shown) [Cath-G inhibitor], for which the “effect on ECM movement towards the site” value is reported as “anti-fibrotic phenotypes” in data set [3] and “inhibit ECM movement” in data set [3] (listed as cathepsin G inhibitors). The “ECM (matrix) movement, liver” value in data set [2] (setting [6]) is “decreased”.
With `N#CC(=C(O)c1ccc(Cl)cc1Cl)c1nc2cc(Cl)ccc2c(=O)[nH]1` [Ciliobrevin D], the “ECM (matrix) movement, peritoneum” value in data set [1] (setting [6]) is reported as “decreased”. Besides, the “organ specificity of the effect on matrix currents” value in data set [1] (livers and peritoneas compared) is reported as “effected matrix currents of only one organ”.
With `CC(C)C[C@H](NC(=O)N[C@H](C(=O)N[C@@H](CCC(N)=O)C(=O)N[C@@H](C)C=O)[C@@H]1CCNC(=N)N1)C(=O)O` [Elastatinal], in data set [1] (setting [6]), the “ECM (matrix) movement, peritoneum” value is “increased”. The results for the “effect on ECM movement towards the site” value in data set [3] (listed as Elastial) and in data set [3] (listed as elastial) were “pro-fibrotic phenotype” and “promote ECM movement”, respectively. Moreover, the “ECM (matrix) movement, liver” value in data set [2] (setting [6]) is given as “increased”.
For `COC(=O)Nc1nc2ccc(Sc3ccccc3)cc2[nH]1` [Fenbendazole], the “toxic effects to fascia tissues” value in data set [4] was “toxic effects”.
`CNC(=O)[C@H](Cc1c[nH]c2ccccc12)NC(=O)[C@@H](CC(=O)NO)CC(C)C` [GM6001]: in data set [1] (setting [6]), the “ECM (matrix) movement, peritoneum” value is listed as “decreased”. Also, the “effect on ECM movement towards the site” value in data set [3] is given as “anti-fibrotic phenotypes; also recorded: inhibit ECM movement”. In addition, in data set [2] (livers and peritoneas), the “potency among the protease inhibitors on matrix currents” value is on record as “most potent”. The “ECM (matrix) movement, liver” value in data set [2] (mouse, in vivo, ip) is on record as “decreased”.
`O=CN1CC/C(=C\c2ccc3c(c2)OCO3)C1=O` [KNK437]: in data set [1] (setting [6]), the “ECM (matrix) movement, peritoneum” value is “decreased”. Moreover, the “ECM (matrix) movement, liver” value in data set [2] (setting [6]) was “decreased”.
With `COC(=O)[C@@H](N)CCCNC(=N)N[N+](=O)[O-]` [L-Name], the “effect on ECM movement towards the site” value in data set [3] is given as “anti-fibrotic phenotype”.
For the compound `CCc1cc(C(C)=O)c(O)cc1OCCCCCC(C)(C)c1nn[nH]n1` [LY255283], the “effect on ECM movement towards the site” value in data set [3] is on record as “anti-fibrotic phenotypes; also recorded: inhibit ECM movement”.
Regarding `COC(=O)c1ccc2c(c1)NC(=O)/C2=C(\Nc1ccc(N(C)C(=O)CN2CCN(C)CC2)cc1)c1ccccc1` [Nintedanib], in data set [5] (Nintedanib 10 μM i.p. 1 hour before bleomycin and repeatedly, 14 days), the “inward translocations (movements) of fluid matrix” value is recorded as “completely abrogated”. Further, in data set [5] (two weeks after bleomycin), the “activation of lung interstitial fibroblasts into myofibroblasts” value is reported as “refrained from activating into pathologic YAP/TAZ-positive myofibroblasts”; the “matrix on lung surfaces (pleural matrix pools): structures and fluorescence intensity” value is “maintained the same structures and fluorescence intensity; also recorded: rescues pleural matrix pools”. Further, the “fibrotic developments along lung airways and bronchioles” value in data set [5] (two weeks after bleomycin, histology) is “very minimal signs of fibrotic developments”.
Consider `CC(=N)NCc1cccc(CN)c1` [Prestw 1400W, 1400W], for which the results for the “effect on ECM movement towards the site” value in data set [3] and in data set [3] (listed as W1400) were “anti-fibrotic phenotypes” and “inhibit ECM movement”, respectively.
Consider `O=c1c(O)c(-c2ccc(O)c(O)c2)oc2cc(O)cc(O)c12` [Quercetin], for which the “ECM (matrix) movement, peritoneum” value in data set [1] (setting [6]) is recorded as “decreased”. The “ECM (matrix) movement, liver” value in data set [2] (setting [6]) is on record as “decreased”.
With `COC(=O)CCC(=O)N[C@@H](C)C(=O)N[C@@H](C)C(=O)N1CCC[C@H]1C(=O)N[C@@H](C)C(=O)CCl` [elastase inhibitor II] (HELM PEPTIDE1{[COC(=O)CCC(=O)[*:2]].A.A.P.A.[ClC[*:1]]}$$$$V2.0), the “ECM (matrix) movement, peritoneum” value in data set [1] (setting [6]) was “increased”. Further, the “ECM (matrix) movement, liver” value in data set [2] (setting [6]) is listed as “increased”.

Values taken from patent US20220334101A1, “MODULATING EXTRACELLULAR MATRIX MOVEMENT” (Helmholtz Zentrum Muenchen - Deutsches Forschungszentrum …, priority 2019, published 2022).
